Test results taken from US11896591B2, “Compositions and methods for preparing and using mitochondrial uncouplers” (UNIVERSITY OF VIRGINIA PATENT FOUNDATION, priority 2017, dated 2024).

tested on: whole cells; test: Oxygen consumption rate (OCR) in whole cells, Seahorse XF-24 Flux Analyzer; assay type: cell-based; conditions: binned EC50 values; increase in oxygen consumption rate in whole cells
Procedure: Biological activities of the compounds synthesized is determined by determining increase in oxygen consumption rate (OCR).
OCR is measured using a Seahorse XF-24 Flux Analyzer (Seahorse Biosciences, North Billerica, MA). NMuLi, C2C12, and L6 cells are seeded in a Seahorse 24-well tissue culture plate at a density of 3.5×10^4 cells/well, isolated cardiomyocytes at a density of 4×10^4 cells/well, and human primary fibroblasts at a density of 1.1×10^4 cells/well. The cells are then allowed to adhere for 24 h. […] Compounds are injected during the assay and OCR is measured using 2 min measurement periods.
2-3 wells are used per condition and averaged over three plates (n=6-9). Statistical significance is determined by two-way ANOVA with Bonferroni's posttest.

SMILES | EC50 [µM]
FC(F)(F)c1ccc(Nc2nc3nonc3nc2Nc2cccc(C(F)(F)F)c2)cc1 [Compound 4x, N^5-(3-(trifluoromethyl)phenyl)-N^6-(4-(trifluoromethyl)phenyl)-[1,2,5]oxadiazolo[3,4-b]pyrazine-5,6-diamine] | < 5
Fc1ccccc1Nc1nc2nsnc2nc1Nc1ccccc1F [Compound 10, N^5,N^6-bis(2-fluorophenyl)-[1,2,5]thiadiazolo[3,4-b]pyrazine-5,6-diamine] | 5 to 20
Cc1cccc(Nc2nc3nonc3nc2Nc2ccccc2F)c1 [Compound 4h, N^5-(2-fluorophenyl)-N^6-(m-tolyl)-[1,2,5]oxadiazolo[3,4-b]pyrazine-5,6-diamine] | < 5
Fc1ccccc1Nc1nc2nonc2nc1Nc1cccc(F)c1F [Compound 4e, N^5-(2,3-difluorophenyl)-N^6-(2-fluorophenyl)-[1,2,5]oxadiazolo[3,4-b]pyrazine-5,6-diamine] | < 5
Fc1cc(F)cc(Nc2nc3nonc3nc2Nc2cc(F)cc(F)c2)c1 [Compound 3cc, N^5,N^6-bis(3,5-difluorophenyl)-[1,2,5]oxadiazolo[3,4-b]pyrazine-5,6-diamine] | < 5
CCOc1cccc(Nc2nc3nonc3nc2Nc2cccc(OCC)c2)c1 [Compound 3h, N^5,N^6-bis(3-ethoxyphenyl)-[1,2,5]oxadiazolo[3,4-b]pyrazine-5,6-diamine] | 5 to 20
Cc1ccc(Nc2nc3nonc3nc2Nc2ccc(C)cc2)cc1 [Compound 3c, N^5,N^6-di-p-tolyl-[1,2,5]oxadiazolo[3,4-b]pyrazine-5,6-diamine] | 5 to 20
Fc1ccccc1Nc1nc2nonc2nc1Nc1ccccc1 [Compound 4a, N^5-(2-fluorophenyl)-N^6-phenyl-[1,2,5]oxadiazolo[3,4-b]pyrazine-5,6-diamine] | < 5
FC(F)(F)c1cc(Nc2nc3nonc3nc2Nc2cc(C(F)(F)F)cc(C(F)(F)F)c2)cc(C(F)(F)F)c1 [Compound 3z, N^5,N^6-bis(3,5-bis(trifluoromethyl)phenyl)-[1,2,5]oxadiazolo[3,4-b]pyrazine-5,6-diamine] | > 20
Fc1ccccc1Nc1nc2nonc2nc1Nc1ccccn1 [Compound 4b, N^5-(2-fluorophenyl)-N^6-(pyridin-2-yl)-[1,2,5]oxadiazolo[3,4-b]pyrazine-5,6-diamine] | > 20
FC(F)(F)c1ccc(Nc2nc3nonc3nc2Nc2ccc(C(F)(F)F)cc2)cc1 [Compound 3s, N^5,N^6-bis(4-(trifluoromethyl)phenyl)-[1,2,5]oxadiazolo[3,4-b]pyrazine-5,6-diamine] | < 5
Fc1ccccc1Nc1nc2nonc2nc1Nc1ccccc1OC(F)(F)F [Compound 4q, N^5-(2-fluorophenyl)-N^6-(2-(trifluoromethoxy)phenyl)-[1,2,5]oxadiazolo[3,4-b]pyrazine-5,6-diamine] | < 5
Fc1c(Nc2nc3nonc3nc2Nc2cccc(C(F)(F)F)c2F)cccc1C(F)(F)F [Compound 3aa, N^5,N^6-bis(2-fluoro-3-(trifluoromethyl)phenyl)-[1,2,5]oxadiazolo[3,4-b]pyrazine-5,6-diamine] | < 5
Fc1ccccc1Nc1nc2nonc2nc1Nc1cc(C(F)(F)F)cc(C(F)(F)F)c1 [Compound 4aa, N^5-(3,5-bis(trifluoromethyl)phenyl)-N^6-(2-fluorophenyl)-[1,2,5]oxadiazolo[3,4-b]pyrazine-5,6-diamine] | < 5
FC(F)(F)Oc1cccc(Nc2nc3nonc3nc2Nc2cccc(OC(F)(F)F)c2)c1 [Compound 3l, N^5,N^6-bis(3-(trifluoromethoxy)phenyl)-[1,2,5]oxadiazolo[3,4-b]pyrazine-5,6-diamine] | < 5
Fc1cccc(Nc2nc3nonc3nc2Nc2cccc(F)c2)c1 [Compound 3n, N^5,N^6-bis(3-fluorophenyl)-[1,2,5]oxadiazolo[3,4-b]pyrazine-5,6-diamine] | < 5
Cc1ccc(Nc2nc3nonc3nc2Nc2ccccc2F)cc1 [Compound 4i, N^5-(2-fluorophenyl)-N^6-(p-tolyl)-[1,2,5]oxadiazolo[3,4-b]pyrazine-5,6-diamine] | 5 to 20
O=C(Nc1ccc(Nc2nc3nonc3nc2Nc2ccccc2F)cc1)C(F)(F)F [Compound 4t, 2,2,2-Trifluoro-N-(4-((6-((2-fluorophenyl)amino)-[1,2,5]oxadiazolo[3,4-b]pyrazin-5-yl)amino)phenyl)acetamide] | < 5
COc1cccc(Nc2nc3nonc3nc2Nc2ccccc2F)c1 [Compound 4k, N^5-(2-fluorophenyl)-N^6-(3-methoxyphenyl)-[1,2,5]oxadiazolo[3,4-b]pyrazine-5,6-diamine] | < 5

Second part, the compound after the results:

EC50 [µM] | SMILES
> 20 | FC(F)(F)c1nc2nc(Nc3ccccc3)c(Nc3ccccc3)nc2[nH]1 [Compound 12l, N^5,N^6-diphenyl-2-(trifluoromethyl)-1H-imidazo[4,5-b]pyrazine-5,6-diamine]
> 20 | Cn1c(C(F)(F)F)nc2nc(Nc3ccccc3F)c(Nc3ccccc3F)nc21 [Compound 13a, N^5,N^6-bis(2-fluorophenyl)-1-methyl-2-(trifluoromethyl)-imidazo[4,5-b]pyrazine-5,6-diamine]
5 to 20 | Cn1c(C(F)(F)F)nc2nc(Nc3cccc(C(F)(F)F)c3F)c(Nc3cccc(C(F)(F)F)c3F)nc21 [Compound 13e, N^5,N^6-bis(2-fluoro-3-(trifluoromethyl)phenyl)-1-methyl-2-(trifluoromethyl)-imidazo[4,5-b]pyrazine-5,6-diamine]
5 to 20 | FC(F)(F)c1cc(Nc2nc3nc(C(F)(F)F)[nH]c3nc2Nc2cc(C(F)(F)F)cc(C(F)(F)F)c2)cc(C(F)(F)F)c1 [Compound 12d, N^5,N^6-bis(3,5-bis(trifluoromethyl)phenyl)-2-(trifluoromethyl)-1H-imidazo[4,5-b]pyrazine-5,6-diamine]
5 to 20 | COC(=O)n1c(C(F)(F)F)nc2nc(Nc3cc(F)cc(F)c3)c(Nc3cc(F)cc(F)c3)nc21 [Compound 14c, Methyl 5,6-bis((3,5-difluorophenyl)amino)-2-(trifluoromethyl)-imidazo[4,5-b]pyrazine-1-carboxylate]
5 to 20 | Fc1cc(Nc2nc3nc(C(F)(F)F)[nH]c3nc2Nc2ccc(C(F)(F)F)c(F)c2)ccc1C(F)(F)F [Compound 12h, N^5,N^6-bis(3-fluoro-4-(trifluoromethyl)phenyl)-2-(trifluoromethyl)-1H-imidazo[4,5-b]pyrazine-5,6-diamine]
< 5 | Fc1cccc(Nc2nc3nc(C(F)(F)F)[nH]c3nc2Nc2cccc(F)c2F)c1F [Compound 12j, N^5,N^6-bis(2,3-difluorophenyl)-2-(trifluoromethyl)-1H-imidazo[4,5-b]pyrazine-5,6-diamine]
< 5 | FC(F)(F)c1ccc(Nc2nccnc2Nc2ccc(C(F)(F)F)cc2)cc1 [Compound 16c, N^2,N^3-bis(4-(trifluoromethyl)phenyl)pyrazine-2,3-diamine]
5 to 20 | CCNc1nc2nonc2nc1Nc1ccccc1F [Compound 7b, N^5-ethyl-N^6-(2-fluorophenyl)-[1,2,5]oxadiazolo[3,4-b]pyrazine-5,6-diamine]
> 20 | COc1ccc(Nc2nc3c(nc2Nc2ccccc2F)nc(C(F)(F)F)n3C)cc1 [Compound 13r, 1-Methyl-N^5-(2-fluorophenyl)-N^6-(4-methoxyphenyl)-2-(trifluoromethyl)-imidazo[4,5-b]pyrazine-5,6-diamine]
5 to 20 | Cc1ccc(Nc2nc3[nH]c(C(F)(F)F)nc3nc2Nc2ccccc2F)cc1 [Compound 12u, N^5-(2-fluorophenyl)-N^6-(p-tolyl)-2-(trifluoromethyl)-1H-imidazo[4,5-b]pyrazine-5,6-diamine]
5 to 20 | Fc1cc(C(F)(F)F)ccc1Nc1nccnc1Nc1ccc(C(F)(F)F)cc1F [Compound 16h, N^2,N^3-bis(2-fluoro-4-(trifluoromethyl)phenyl)pyrazine-2,3-diamine]
5 to 20 | Fc1cc(Nc2nc3nc(C(F)(F)F)[nH]c3nc2Nc2ccc(OC(F)(F)F)c(F)c2)ccc1OC(F)(F)F [Compound 12f, N^5,N^6-bis(3-fluoro-4-(trifluoromethoxy)phenyl)-2-(trifluoromethyl)-1H-imidazo[4,5-b]pyrazine-5,6-diamine]
> 20 | Cn1c(C(F)(F)F)nc2nc(Nc3ccc(C(F)(F)F)c(F)c3)c(Nc3ccc(C(F)(F)F)c(F)c3)nc21 [Compound 13h, N^5,N^6-bis(3-fluoro-4-(trifluoromethyl)phenyl)-1-methyl-2-(trifluoromethyl)-imidazo[4,5-b]pyrazine-5,6-diamine]
5 to 20 | Cn1c(C(F)(F)F)nc2nc(Nc3cc(F)cc(F)c3)c(Nc3cc(F)cc(F)c3)nc21 [Compound 13i, N^5,N^6-bis(3,5-difluorophenyl)-1-methyl-2-(trifluoromethyl)-imidazo[4,5-b]pyrazine-5,6-diamine]
> 20 | Fc1ccccc1Nc1nc2nc(C(F)(F)F)[nH]c2nc1NC1CCCCC1 [Compound 12v, N^5-(2-fluorophenyl)-N^6-cyclohexyl-2-(trifluoromethyl)-1H-imidazo[4,5-b]pyrazine-5,6-diamine]
> 20 | Cn1c(C(F)(F)F)nc2nc(Nc3ccccc3F)c(Nc3cccc(C(F)(F)F)c3F)nc21 [Compound 13t, 1-Methyl-N^5-(2-fluorophenyl)-N^6-(2-fluoro-3-(trifluoromethyl)phenyl)-2-(trifluoromethyl)-imidazo[4,5-b]pyrazine-5,6-diamine]
5 to 20 | Cn1c(C(F)(F)F)nc2nc(Nc3cc(C(F)(F)F)cc(C(F)(F)F)c3)c(Nc3cc(C(F)(F)F)cc(C(F)(F)F)c3)nc21 [Compound 13d, N^5,N^6-bis(3,5-bis(trifluoromethyl)phenyl)-1-methyl-2-(trifluoromethyl)-imidazo[4,5-b]pyrazine-5,6-diamine]
